Where a name gives a salt, the structure may show the parent alone.
How the values were obtained:
C57BL/6 mice = assay: Mice treated via drinking water for 21 days: spleen cells, blood cells, weights; type: in vivo, mouse
Experimental: Mice were treated with indicated concentrations of QA or C-MED-100® in the drinking water for 21 days, sacrificed and absolute number of spleen cells counted using trypan blue exclusion. The presented data are mean cell numbers±S.D. pooled from five experiments (water, n=21; C-MED-100® 4 mg/ml, n=24; C-MED-100® 8 mg/ml, n=9; QA 1 mg/ml, n=9; QA 2 mg/ml, n=22; QA 4 mg/ml, n=10). Statistically significant differences compared to control mice supplemented with tap water are indicated. […] The data are presented as the mean number of cells/ml±S.D. from five experiments (water, n=21; C-MED-100® 4 mg/ml, n=24; C-MED-100® 8 mg/ml, n=9; QA 1 mg/ml, n=9; QA 2 mg/ml, n=22; QA 4 mg/ml, n=10). Statistically significant differences compared to control mice supplemented with tap water are indicated. Materials and Methods: C57BL/6 females were bought from […], Denmark and used in experiments at an age of 6-10 weeks. The animals were kept in a SPF facility at Lund University, Lund, Sweden. The use of laboratory animals complies with the guidelines of the European Community and was approved of by the local ethical committee. In vivo treatment: Mice were fed with C-MED-100® and QA (Sigma-Aldrich), dissolved in autoclaved tap water at indicated concentrations, for 21 days. The drinking water bottles were changed every third day. The animals were then sacrificed, the spleens removed and blood samples collected. The blood samples were analyzed in a Sysmex KX-21N cytometer (Sysmex Corporation, Kobe, Japan).

IκBα = assay: Western blotting of IκBα and phosphorylated IκBα in LPS-stimulated 70Z/3 cells; type: cell-based, mouse; settings: QA 2 mg/ml or PDTC 100 μM
Experimental: FIGS. 5C and 5D illustrate 70Z/3 cells (5×10^6) that were pre-treated with QA (2 mg/ml) or with PDTC (100 μM) as a positive control for two hours and thereafter stimulated with LPS (25 μg/ml) for the indicated time. Cytoplasmic extracts equalized for protein concentration were analyzed by western blotting using IκBα-specific antibodies. One representative experiment out of three (FIG. 5C) and one representative experiment out of two (FIG. 5D) are presented.
Preparation of cell extracts: The 70Z/3 cells were pretreated with QA (1 or 2 mg/ml) or with PDTC for 2 hours before they were stimulated with LPS for various time points. Whole cell extracts from the 70Z/3 cells (1×10^6) were prepared for analysis of the NF-κB signaling pathway. The cells were washed twice in PBS, resuspended in lysis buffer (75 mM Tris-HCl (pH 8.0), 100 mM NaCl, 5 mM KCl, 3 mM MgCl2, 2% NP-40, 1 mM PMSF and a protease inhibitor cocktail) (Roche Diagnostics Scandinavia AB) and incubated on ice for 10 min. The cell debris was pelleted and the supernatants were stored at −70° C. until Western Blot was performed.
Western blotting: Cellular extracts from 70Z/3 cells were separated on a 10% SDS polyacrylamide gel and the proteins were transferred to a nylon membrane. After blocking overnight in 5% dry fat-free milk in TBST, the membrane was incubated for 2 hrs with primary antibodies specific either to IκBα or to phosphorylated IκBα (both from Cell Signaling Technology Inc, Beverly, Mass.). The membranes were thereafter washed three times in TBST, and incubated with HRP-conjugated goat anti-rabbit antibodies (Amersham Pharmacia). The membranes were washed three times and chemoluminescence was detected using the ECL-reagent (Amersham Pharmacia) and x-ray film (CEA AB, Strängnäs, Sweden).

[1] = test system: human HL-60 leukemic cells; assay: In vitro growth inhibition by QA salts in cultured HL-60 cells, MTT, 72 hr (FIG. 8); type: cell-based; settings: for in vitro cytotoxicity compared to C-MED-100 (FIG. 8): HL-60 cells
Experimental: QA was purchased from Sigma (>99%). QA salts were synthesized by neutralization with the appropriate base, i.e., NH4OH, NaOH, Ca(OH)2, Zn(OH)2, LiOH, KOH, lysine or histidine. Serial dilutions of test compounds were added to human HL-60 leukemic cells (0.05×10^6 cells/ml) in 96-well, flat bottomed microtiter plates to give final concentrations in the cultures up to 3000 μg/ml. The plates were incubated for 72 hr at 37 C, pulsed with 20 μl MTT (5 mg/ml) for 3 hr, and the color estimated spectrophotometrically at 540 nm as described previously. (Schweitzer, C M et al. Spectrophotometric determination of clonogenic capacity of leukemic cells in semisolid microtiter culture systems. Experimental Hematology 21: 573-578, 1993). IC50 values were calculated and compared based on the live/dead ratio of cells.

[2] = test system: HL-60 human leukemic cells; assay: In vitro cytotoxicity in HL-60 cells, MTT assay (Table 2); type: cell-based; settings: Homo sapiens, HL-60; no base hydrolysis
Experimental: In Table 2, the in vitro cytotoxicity of the various components were determined in HL-60 human leukemic cells using the MTT assay and calculation of IC50 values as described in detail elsewhere. Quinic acid ester content was determined by the Bartos method (Bartos, 1980). […] The quinic acid traveling between Rf=0.2-0.3 was eluted from the TLC plates with 1% aqueous ammonia and the relative quantity estimated by absorption at 200 nm as ± being less than 0.050 and “++++” denoting the highest amount detected, with a decrease in the number of “+” signs corresponding to a decrease in the amount of QA detected.

SMILES | number of spleen cells (C57BL/6 mice; 2 mg/ml in drinking water, 21 days) | body weight (C57BL/6 mice; 4 mg/ml in drinking water) | WBC and blood lymphocytes in peripheral blood (C57BL/6 mice; 4 mg/ml in drinking water, vs normal control animals) | absolute numbers of lymphocyte subsets CD4+ T cells, CD8+ T cells and B cells in spleen (C57BL/6 mice; drinking water 21 days (FIG. 6B)) | WBC, blood lymphocytes, RBC in peripheral blood (C57BL/6 mice; drinking water 21 days, indicated concentrations) | phosphorylation of IκBα (IκBα) | LPS-induced breakdown of IκBα (IκBα; 2 h pretreatment) | in vitro cytotoxicity compared to C-MED-100 (FIG. 8) [1] | IC50 [2] [µg/mL] | IC50 ([1]; Homo sapiens, HL-60) [µg/mL]
O=C(O)C1(O)CC(O)C(O)C(O)C1 (stereo not drawn) [QA, 1,3,4,5-tetrahydroxy-cyclohexanecarboxylic acid] | significantly increased number of spleen cells | significantly reduced | this increase was significant | this was also the case | increasing number of WBC and blood lymphocytes | did not affect the phosphorylation of IκBα | inhibited the LPS-induced breakdown of IκBα | much greater in vitro cytotoxicity than does C-MED-100® | > 2300 | –
O=C(O)[C@]1(O)C[C@@H](O)[C@@H](O)[C@H](O)C1 [QAA, quinic acid ammonium salt] | – | – | – | – | – | – | – | in vitro cytotoxicity comparable to that of C-MED-100® | 500 | ≤ 1100

From patent US7947312B2, “Method of preparation and composition of a water soluble extract of the bioactive component of the plant species Uncaria for enhancing immune, anti-inflammatory, anti-tumor and DNA repair processes of warm blooded animals” (priority 2002, dated 2011)
